In patent publication US20040147739A1, “Novel anti-infectives” (priority 2003, published 2004):

Compound	melting point [°C]
O=c1c(C2=Nc3ccccc3S(=O)(=O)N2)c(O)c2ccccc2n1CCCC(F)(F)F [Example 18, 3-(1, l-Dioxo-1,2-dihydrobenzo[1,2,4]thiadiazin-3-yl)-4-hydroxy-1-(4,4,4-trifluorobutyl)-1H-quinolin-2-one]	248.9 to 250
O=c1c(C2=Nc3ccccc3S(=O)(=O)N2)c(O)c2ccccc2n1CC1CCCCC1 [Example 11, 1-Cyclohexylmethyl-3-(1,1-dioxo-1,2-dihydrobenzo[1,2,4]thiadiazin-3-yl)-4-hydroxy-1H-quinolin-2-one]	232 to 235
O=c1c(C2=NS(=O)(=O)c3cc(I)ccc3N2)c(O)c2ccccc2n1CCC1CC1	234 to 236

More lines, now with the values ahead:

melting point [°C]	Compound
249.1 to 251.1	CC(C)=CCn1c(=O)c(C2=Nc3ccccc3S(=O)(=O)N2)c(O)c2ccccc21 [Example 12, 3-(1,1-Dioxo-1,2-dihydrobenzo[1,2,4]thiadiazin-3-yl)-4-hydroxy-1-(3-methylbut-2-eneyl)-1H-quinolin-2-one]
238.4 to 239.6	O=c1c(C2=Nc3ccccc3S(=O)(=O)N2)c(O)c2ccccc2n1CCCCO [Example 20, 3-(1,1-Dioxo-1,2-dihydrobenzo[1,2,4]thiadiazin-3-yl)-4-hydroxy-1-(4-hydroxybutyl)-1H-quinolin-2-one]
